system: PGE2 production; experiment: Inhibition of UVB-induced PGE2 production in cultured human keratinocytes (PGE2 assay kit, calibrated with MTT absorbance); type: cell-based; conditions: not given
Method: Human keratinocytes were seeded at a density of 1×10^5 cells/well to 6-well plates containing 2 mL of KGM(keratinocyte growth medium, Clonetics, San Diego, Calif., USA) per well and cultured overnight. Then, the medium was replaced with KBM(keratinocyte basal medium) supplemented with 0.1% BSA(bovine serum albumin) and the cells were cultured for an additional 24 hours. Subsequently, the cells were pre-treated for an additional 24 hours with 2 mL of the same medium containing 10 μg/ml of each of the dipeptides listed in Table 1. […] The pre-treated medium was transferred to new 24 well plates and 1 mL of DPBS(Dulbecco's phosphate buffered saline) was added to the cells in each well. During UV irradiation, the transferred medium was stored in a cell incubator. […] At this time, the control was covered with aluminum foil. After the removal of DPBS, the transferred medium was returned to each well. The cells were further cultured for 24 hours, after which 1 mL of the medium was transferred to microcentrifuge tubes. […] The supernatants were then removed and the formazan crystals were solubilized in 1 ml of DMSO(dimethylsulfoxide). One hundred μL of the solution was transferred to each well of 96-well plates and an optical density was determined at 540 nm using an ELISA(enzyme-linked immunosorbent assay) reader. […] The concentration of PGE2 was determined using a PGE2 Assay Kit(KGE004, R&D Systems, Inc., Minneapolis, Minn., USA) according to the manufacturer's instruction. […] After removal of the reaction, the wells were washed five times with 400 μL of wash buffer. To each well was added 200 μL of a substrate solution, followed by incubation for 20 30 min. The reaction was terminated with 50 μL of a stop solution per well before determining absorbance at 450 nm on an ELISA reader. The PGE2 concentration of each sample was calculated from the standard graph and calibrated with the absorbance obtained in the MTT assay to determine their inhibitory activity against PGE2 production.

Row | Substance | % Inhibition against PGE2 Production [%]
1 | histidine-leucine [HL] | 36.3
2 | histidine-lysine [HK] | 43.8
3 | histidine-proline [HP] | 26.3
4 | histidine-serine [HS] | 53.2
5 | histidine-tyrosine [HY] | 77.9
6 | isoleucine-histidine [IH] | 27.1
7 | isoleucine-methionine [IM] | 57.1
8 | isoleucine-proline [IP] | 59.5
9 | isoleucine-tyrosine [IY] | 68.6
10 | leucine-histidine [LH] | 81.7
11 | lysine-methionine [KM] | 84.0
12 | lysine-tyrosine [KY] | 72.6
13 | methionine-arginine [MR] | 36.5
14 | methionine-aspartic acid [MD] | 64.8
15 | methionine-glutamine [MQ] | 87.5
16 | methionine-threonine [MT] | 71.2
17 | methionine-tryptophan [MW] | 76.4
18 | methionine-tyrosine [MY] | 91.7
19 | phenylalanine-tyrosine [FY] | 88.0
20 | proline-arginine | 76.4
21 | proline-asparagine [PN] | 32.7
22 | proline-aspartic acid [PD] | 84.3

Row | Substance | % Inhibition against PGE2 Production [%]
23 | proline-glutamine [PQ] | 78.1
24 | proline-histidine [PH] | 74.7
25 | proline-isoleucine [PI] | 87.2
26 | proline-lysine [PK] | 96.3
27 | proline-phenylalanine [PF] | 32.8
28 | proline-serine [PS] | 71.3
29 | proline-threonine [PT] | 21.7
30 | proline-tryptophan [PW] | 85.5
31 | proline-tyrosine [PY] | 24.8
32 | serine-asparagine [SN] | 49.9
33 | serine-histidine [SH] | 51.5
34 | serine-methionine [SM] | 75.1
35 | serine-proline [SP] | 94.7
36 | serine-tyrosine [SY] | 91.5
37 | serine-valine [SV] | 31.2
38 | threonine-methionine [TM] | 67.9
39 | threonine-proline [TP] | 65.7
40 | threonine-valine [TV] | 43.9
41 | tryptophan-methionine [WM] | 50.6
42 | tryptophan-proline [WP] | 68.3
43 | tyrosine-arginine | 83.7

same assay, conditions: 10 μg/ml dipeptide, 24 h pre-treatment, human keratinocytes, UVB 100 mJ/cm^2, medium assayed 24 h after irradiation; 0% or lower expressed as zero; 10% or more regarded as effective

Row | Substance | % Inhibition against PGE2 Production [%]
44 | histidine-phenylalanine [HF] | 43.2
45 | isoleucine-alanine [IA] | 38.6
46 | leucine-alanine | 47.2
47 | phenylalanine-alanine [FA] | 48.8
48 | phenylalanine-histidine [FH] | 39.2
49 | phenylalanine-methionine [FM] | 67.5
50 | phenylalanine-phenylalanine [FF] | 70.5
51 | proline-alanine [PA] | 76.8
52 | serine-alanine [SA] | 51.0
53 | tryptophan-alanine [WA] | 88.5
54 | tyrosine-alanine [YA] | 80.2

same assay, conditions: 10 μg/ml dipeptide, 24 h pre-treatment, human keratinocytes, UVB 100 mJ/cm^2, medium assayed 24 h after irradiation; […]; 10% or more regarded as effective

Row | Substance | % Inhibition against PGE2 Production [%]
55 | histidine-tryptophan [HW] | 21.6
56 | isoleucine-aspartic acid | 64.6
57 | isoleucine-glutamine [IQ] | 72.0
58 | isoleucine-lysine [IK] | 71.3
59 | isoleucine-serine | 66.0
60 | isoleucine-threonine [IT] | 18.9
61 | isoleucine-valine [IV] | 70.9
62 | leucine-arginine [LR] | 52.0
63 | leucine-asparagine [LN] | 78.8
64 | leucine-cysteine [LC] | 33.3
65 | leucine-glutamic acid | 92.8
66 | leucine-lysine [LK] | 82.8
67 | leucine-phenylalanine [LF] | 90.2
68 | leucine-threonine [LT] | 53.4
69 | leucine-valine [LV] | 79.9
70 | lysine-aspartic acid [KD] | 90.3
71 | lysine-cysteine [KC] | 20.2
72 | lysine-threonine [KT] | 77.8
73 | lysine-tryptophan [KW] | 76.9
74 | lysine-valine [KV] | 71.6

Row | Substance | % Inhibition against PGE2 Production [%]
75 | phenylalanine-arginine [FR] | 92.9
76 | phenylalanine-asparagine [FN] | 81.4
77 | phenylalanine-aspartic acid [FD] | 13.7
78 | phenylalanine-isoleucine [FI] | 45.8
79 | phenylalanine-leucine [FL] | 29.2
80 | phenylalanine-lysine [FK] | 73.3
81 | phenylalanine-tryptophan [FW] | 92.9
82 | serine-arginine [SR] | 52.9
83 | serine-aspartic acid [SD] | 58.4
84 | serine-cysteine [SC] | 77.7
85 | serine-glutamic acid | 44.0
86 | serine-glutamine [SQ] | 58.8
87 | serine-isoleucine [SI] | 50.3
88 | serine-leucine [SL] | 81.6
89 | serine-lysine [SK] | 44.9
90 | serine-serine [SS] | 93.8
91 | serine-threonine [ST] | 79.5
92 | threonine-arginine [TR] | 53.0
93 | threonine-aspartic acid [TD] | 77.6
94 | threonine-glutamic acid [TE] | 82.5

Row | Substance | % Inhibition against PGE2 Production [%]
95 | threonine-glutamine [TQ] | 51.2
96 | threonine-isoleucine [TI] | 36.3
97 | threonine-lysine [TK] | 39.0
98 | threonine-phenylalanine [TF] | 77.3
99 | threonine-serine [TS] | 55.7
100 | threonine-tryptophan [TW] | 54.8
101 | tryptophan-arginine [WR] | 83.7
102 | tryptophan-asparagine [WN] | 33.1
103 | tryptophan-aspartic acid [WD] | 85.9
104 | tryptophan-cysteine [WC] | 18.3
105 | tryptophan-glutamic acid [WE] | 79.9
106 | tryptophan-glutamine [WQ] | 88.7
107 | tryptophan-histidine [WH] | 96.1
108 | tryptophan-leucine [WL] | 90.2
109 | tryptophan-lysine [WK] | 78.3
110 | tryptophan-phenylalanine [WF] | 81.7
111 | tryptophan-serine [WS] | 89.0
112 | tryptophan-tryptophan [WW] | 34.8
113 | tryptophan-tyrosine [WY] | 55.6
114 | tryptophan-valine [WV] | 79.6
